{"source": "paper PMC10766610", "about": "“DCAF1-based PROTACs with activity against clinically validated targets overcoming intrinsic- and acquired-degrader resistance” (Nature Communications, 2024)", "key": {"[1]": {"tested_on": "TMD8 WT and TMD8 CRBN resist. cells", "experiment": "CellTiter-Glo viability, TMD8 WT vs CRBN resist. cells", "type": "cell-based, human", "conditions": "CellTiter-Glo proliferation", "procedure": "TMD8 cells were grown in the presence of a CRBN-BTK PROTAC CBt using a gradual dose increase. Start treatment was 0.1 nM for 6 weeks, followed by 3 weeks at 0.4 nM and another 4 weeks at 10 nM to finally obtain CBt resistant TMD8 cells (TMD8 CRBN resist.).\nd) Viability measured by cell titer-Glo for DBt-10 (green) vs (13) (purple) in WT (solid) vs CRBN resist.\n(dotted) TMD8 cells. Data represents average ± standard deviation from n=3 replicates.\ne) Repeat of the viability measured by cell titer-Glo for DBt-10 (green) vs (13) (purple) in WT (solid) vs\nCRBN resist. (dotted) TMD8 cells with adjusted dose response range. Data represents average ±\nstandard deviation from n=3 replicates.\nSource data are provided as a Source Data file"}, "LIMK2": {"target": "T1, LIMK2 (Homo sapiens, UniProt P53671)", "T1 construct": "host or cells: HEK293T", "T1 sequence (P53671 whole entry)": "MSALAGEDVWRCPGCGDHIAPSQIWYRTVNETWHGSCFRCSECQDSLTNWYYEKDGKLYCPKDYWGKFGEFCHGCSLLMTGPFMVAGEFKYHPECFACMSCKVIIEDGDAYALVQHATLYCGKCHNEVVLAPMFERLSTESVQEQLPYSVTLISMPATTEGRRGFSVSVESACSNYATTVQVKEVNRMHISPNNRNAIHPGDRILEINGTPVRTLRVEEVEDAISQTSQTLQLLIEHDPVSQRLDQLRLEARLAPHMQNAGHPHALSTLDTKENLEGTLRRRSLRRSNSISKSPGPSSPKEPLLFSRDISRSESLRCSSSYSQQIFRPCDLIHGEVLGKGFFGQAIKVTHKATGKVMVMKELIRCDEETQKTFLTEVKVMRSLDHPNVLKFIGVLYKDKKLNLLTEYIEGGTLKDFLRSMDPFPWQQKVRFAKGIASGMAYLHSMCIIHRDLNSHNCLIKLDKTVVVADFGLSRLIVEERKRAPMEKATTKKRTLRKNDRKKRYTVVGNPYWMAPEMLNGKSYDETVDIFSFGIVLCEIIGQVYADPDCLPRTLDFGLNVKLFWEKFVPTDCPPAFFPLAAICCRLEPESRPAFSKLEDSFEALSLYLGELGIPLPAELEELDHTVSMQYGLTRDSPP", "experiment": "Immunoblot of LIMK2 in HEK293T cells", "type": "cell-based", "conditions": "6 h", "procedure": "Whole cell lysates for immunoblotting were prepared by pelleting cells at 4 °C (300 g) for 3 min. Cell pellets were then washed 1x with PBS and resuspended in RIPA lysis buffer (VWR, cat # 97063-270) supplemented with protease (Thermo Scientific, cat # A32955) and phosphatase (Thermo Scientific, cat # A32957) inhibitor tablets. Lysates were clarified at 16,000 × g for 15 min at 4 °C prior to quantification by Lowry assay (Bio-Rad cat # 5000113 and cat # 5000114). Whole-cell lysates were loaded into 4–20% Criterion TGX Precast 18 well gels (Bio-Rad, cat # 5671094) and separated by electrophoreses at 120 V for 1 h. The gels were transferred to a nitrocellulose membrane using the Trans-Blot Turbo (Bio-Rad) for 7 min and then blocked for 1 h at room temperature in Odyssey blocking buffer (LICOR Biosciences, cat # 927-50000). Membranes were probed with the appropriate primary antibodies (diluted 1:1000) overnight at 4 °C in 20% Odyssey blocking buffer in 1x TBST. Membranes were washed three times with 1x TBST (5 min per wash), and then incubated with IRDye goat anti-mouse (LICOR, cat # 926-32210) or goat anti-rabbit (LICOR, cat # 926-32211) secondary antibody diluted 1:10,000 in 20% Odyssey blocking buffer for 1 h at room temperature. After three 5-min washes with 1x TBST, the immunoblots were visualized using the ODYSSEY Infrared Imaging System (LICOR). […]"}, "HEK293T cells": {"tested_on": "HEK293T cells", "experiment": "Whole proteomics profile, DDa-1 vs (13), HEK293T cells", "type": "cell-based, human", "conditions": "5 µM DDa-1 vs 5 µM (13), 6 h", "procedure": "HEK293T and TMD8 cells were cultured according to protocol and 3 million cells were plated per sample and recovered for 24 h. The following day, cells were treated with indicated compounds at corresponding concentrations for 6 h. Cells were then harvested and washed 2× with PBS before removing all liquid and snap freezing in liquid nitrogen before sample preparation for proteomics.\nTMT-labeled peptides were generated with the iST-NHS kit (PreOmics) and TMT10plex (duplicates per condition) or TMT18plex (triplicates per condition) reagent (Thermo Fisher Scientific). Equal amounts of labeled peptides were pooled and separated on a high pH fractionation system with a water-acetonitrile gradient containing 10 mM ammonium formate, pH 11[88]. Alternating rows of the resulting 72 fractions were pooled into 24 samples, dried and resuspended in water containing 0.1% formic acid.\nThe LC-MS analysis was carried out on an EASY-nLC 1200 system coupled to an Orbitrap Fusion Lumos Tribrid mass spectrometer (Thermo Fisher Scientific). […]\nLC-MS raw files were analyzed with Proteome Discoverer 2.4 (Thermo Fisher Scientific). […] TMT reporter ions of the MS3 spectra were integrated with a 20 ppm tolerance and the reporter ion intensities were used for quantification. […] Protein relative quantification was performed using an in-house developed R (v.3.6) script. […]"}}, "note": "“Also recorded” adds a separate entry of the source."}
{"molecule": "Cc1c(NC(=O)N2CC(O)(CC(C)(C)C)C2)cc(F)cc1-c1ncnc2[nH]c(-c3cnn(CC(=O)N4CCC5(CC4)CN(CCNC(=O)CCCC(=O)N4CCN(c6ccc7c(NCCN)nc(C8(c9ccc(Cl)cc9)CCCCC8)nc7c6)CC4)CCO5)c3)cc12", "note": "[DBt-10]", "values": [{"measurement": "relative potency change between CBt sensitive and resistant TMD8 cells", "setting": "[1]", "value": "did not show any relative potency differences"}]}
{"molecule": "Cc1nc(Nc2ncc(C(=O)Nc3c(C)cccc3Cl)s2)cc(N2CCC(OC3CCN(CCCCCCCC(=O)N4CCN(c5ccc6c(NCCN)nc(C7(c8ccc(Cl)cc8)CCCCC7)nc6c5)CC4)CC3)CC2)n1", "note": "[DDa-1]", "values": [{"measurement": "LIMK2 protein levels", "setting": "LIMK2", "value": "significant reduction in protein levels"}, {"measurement": "kinases with significant protein level reduction (LC/MS proteomics)", "setting": "HEK293T cells", "value": "CSK and LIMK2; also recorded: TEC and TNK2"}]}
